Data as given in patent publication US3993754A (priority 1974, dated 1976).
Like-named read-outs stand apart in the source and are kept apart here. *1 amine or outer side, *2 acyl side, *3 side chain or, on linkers, in order; H or OH if unused. Where a SMILES comes first, the peptide text is derived from it. Bridges are numbered along the chain shown (N, C = ends). Roman numbers before positions name the chains, in order. [ ]: non-standard residue; d: D form. Actinocin(9to1) = Cc1c2oc3c(C)ccc(C(=O)[*:1])c3nc-2c(C(=O)[*:2])c(N)c1=O; NMeV = CN[C@H](C(=O)O)C(C)C; Sar = CNCC(=O)O

Tests used:
[1] = mice
Description: Female CF No. 1 (Carworth Farms) mice, 3 months of age, weighing between 27 and 29 grams, were used in each instance in these experiments. For toxicity studies, groups of 15 or 20 mice were given actinomycin D at different levels, either in the nonencapsulated or in the liposome-encapsulated forms. Toxicity of actinomycin D was tested by both intravenous and intraperitoneal injection. Experiments were carried out to test the therapeutic efficacy of the encapsulated actinomycin D against Ehrlich ascites (E. A.) tumor cells in vivo. In Experiment I, mice recieved 20 × 10^6 E.A. cells by intraperitoneal injection. After 5 days, separate groups were treated with one of the following: (1) 0.4 ml of 8 mM calcium chloride, (2) nonencapsulated actinomycin D (0.75 mg/kg), or (3) liposome-encapsulated actinomycin D (0.75 mg/kg). In Experiment II, two groups of 10 mice were similarly inoculated. Treatment of one group was begun after 3 days with 0.5 mg/kg of encapsulated actinomycin D, followed by injection on 4 consecutive days with 0.25 mg/kg. All injections were given intraperitoneally, in a volume of 0.4 ml in Experiment I, 0.2 ml in Experiment II.

[2] = system: Ehrlich ascites (E. A.) tumor cells; assay: Therapeutic efficacy against Ehrlich ascites tumor cells in vivo (survival time); set-up: species or system mice; conditions: Experiment I: single i.p. treatment 0.75 mg/kg, 5 days after inoculation of 20 × 10^6 E.A. cells; control 7.4 ± 3.11 days
Description: Referring to FIG. 1, there is illustrated the therapeutic effect of liposome-encapsulated actinomycin D on the survival of mice bearing E.A. tumor following single treatments given at 5 days after inoculation of 20 × 10^6 E.A. cells. A control is represented by line 11 on the graph, liposome-encapsulated actinomycin D at 0.75 mg/kg represented by line 12 and nonencapsulated actinomycin D at 0.75 mg/kg represented by line 13.
Referring to FIG. 2, there is shown graphically the therapeutic effect of liposome-encapsulated actinomycin D on the survival of mice bearing E.A. tumor with multiple daily treatments starting at day 3 after inoculation with 20 × 10^6 E.A. cells. In FIG. 2, the control is represented by line 14, liposome-encapsulated actinomycin D, first dose 0.50 mg/kg followed by four consecutive injections of 0.25 mg/kg, is represented by line 15. As is readily apparent from the graph, the increase in survival time after mutliple injections of encapsulated actinomycin D was even more impressive: 7.3 ± 2.26 days for the control versus 17.6 ± 2.17 days for the encapsulated actinomycin D. All of the control animals died before the first death occurred in the treatment group. In a separate experiment, it was observed that injection of liposomes prepared with KCl instead of actinomycin D had no effect on survival time.

E.A. cells = assay: Light and electron microscopic examination of E.A. tumor cells after treatment; assay type: in vivo, mouse; conditions: 1 mg/kg (2 mg/kg in the first case), 1 hour to 5 days after treatment
Description: Electron microscopic studies of tissue cells were also conducted. For the electron microscopic studies, a mouse was inoculated with E.A. cells in the manner described above. Five days after the inoculation, liposomes containing actinomycin D at a concentration of 2 mg/kg were injected intraperitoneally. At intervals of 1, 6, 12 and 24 hours after the liposome injection, 0.2 ml of ascites fluid was aspirated from the mouse abdominal cavity with a syringe. The fluid was centrifuged and the pellet of E.A. cells was fixed and processed for examination in an electron microscope. […] Light and electron microscopic examination of E.A. tumor cells was also carried out 1 hour to 5 days after treatment with liposome-encapsulated and nonencapsulated actinomycin D at a dose of 1 mg/kg. […] There was an increase in lipid droplets, lyosomes and autophagic vacuoles and the ribosomes were clumped into distinct clusters. Fewer dividing cells were seen, at least after 24 hours post-treatment.

Cc1c2oc3c(C)ccc(C(=O)N[C@@H]4C(=O)N[C@H](C(C)C)C(=O)N5CCC[C@H]5C(=O)N(C)CC(=O)N(C)[C@@H](C(C)C)C(=O)O[C@@H]4C)c3nc-2c(C(=O)N[C@@H]2C(=O)N[C@H](C(C)C)C(=O)N3CCC[C@H]3C(=O)N(C)CC(=O)N(C)[C@@H](C(C)C)C(=O)O[C@@H]2C)c(N)c1=O [actinomycin D] (I: T[dV]P[Sar][NMeV] / II: T[dV]P[Sar][NMeV]; ester I:1-I:C, II:1-II:C; linker I:N-II:N via Actinocin(9to1))
LD50 ([1]; given intravenously): 0.43 ± 0.04 mg/kg | LD50 ([1]; intraperitoneal injection): 0.59 ± 0.17 mg/kg | survival of some of the decedents ([1]; intraperitoneal injection): ≤ 14 days | average survival time of the decedents ([1]; intravenous, 0.3 mg/kg): 3.5 days | decedents out of 20 injected ([1]; intravenous, 0.3 mg/kg): 8 | time within which most of the deaths occurred ([1]; intravenous, doses of 0.5 mg/kg and above): ≤ 24 h | survival time after treatment [2]: slightly, but not significantly, less than the controls | morphological damage of E.A. cells (E.A. cells): Significantly fewer E. A. cells were damaged
